Where a name gives a salt, the structure may show the parent alone. Read-outs that look alike come from different tables or passages of the source.

The target in experiment [1] is T1, SARS-CoV-2 PLpro (nsp3 1564–1878) (Severe acute respiratory syndrome coronavirus 2, UniProt P0DTD1). Kind of experiment: biochemical. The arrangement: FRET-quenched peptide (Pro3) cleavage by PLpro, 10 min pre-incubation, slope over 20 min, normalised to no-compound control. Conditions: high concentration screen, read-out: % of control remaining.
The target of experiment [2] is T1, SARS-CoV-2 PLpro (nsp3 1564–1878). Kind of experiment: biochemical. The arrangement: FRET-quenched peptide (Pro3) cleavage by PLpro, 10 min pre-incubation, slope over 20 min, normalised to no-compound control. To be noted: low concentration screen, read-out: % of control remaining.

Consider `CN1[C@@H]2CC[C@H]1C[C@@H](OC(=O)c1cc(Cl)cc(Cl)c1)C2` [3-Tropanyl-3,5-dichlorobenzoate], for which, in experiment [1] (Well no.=1278), the remaining activity at 3.75 µM came out at 108%. Also, the remaining activity at 1.25 µM in experiment [2] (Well no.=1278) was determined as 110%.

For the compound `Cc1cnc(CNC(=O)c2c(=O)c3ccc(N4CCCN(C)CC4)nc3n3c2sc2ccccc23)cn1` [CX-5461], the remaining activity at 3.75 µM in experiment [1] (Well no.=5340) came to 102%. Besides, the remaining activity at 1.25 µM in experiment [2] (Well no.=5340) is 99.1%.

Turning to `CC(C)C[C@H]1C(=O)O[C@H](Cc2ccc(N3CCOCC3)cc2)C(=O)N(C)[C@@H](CC(C)C)C(=O)O[C@H](C)C(=O)N(C)[C@@H](CC(C)C)C(=O)O[C@H](Cc2ccc(N3CCOCC3)cc2)C(=O)N(C)[C@@H](CC(C)C)C(=O)O[C@H](C)C(=O)N1C` [Emodepside], the remaining activity at 3.75 µM in experiment [1] (Well no.=8506) turned out to be 100%. In experiment [2] (Well no.=8506), the remaining activity at 1.25 µM amounted to 100%.

For the compound `CC1=NN(c2ccc(C(=O)O)cc2)C(=O)/C1=C\c1ccc(-c2cc(C)c(C)cc2[N+](=O)[O-])o1` [C646], the remaining activity at 3.75 µM in experiment [1] (Well no.=5456) came out at 101%. Moreover, in experiment [2] (Well no.=5456), the remaining activity at 1.25 µM amounted to 98.3%.

Regarding `O=C(O)Cc1ccccc1Nc1c(Cl)cccc1Cl` [Diclofenac Potassium], the remaining activity at 3.75 µM in experiment [1] (Well no.=5307) was 100%. Further, the remaining activity at 1.25 µM in experiment [2] (Well no.=5307) came to 101%.

As for `COc1ccc2c(c1OCc1ccccc1)C[C@@H](C(=O)O)N(C(=O)C(c1ccccc1)c1ccccc1)C2` [Olodanrigan], in experiment [1] (Well no.=8122), the remaining activity at 3.75 µM was 99.4%. Further, in experiment [2] (Well no.=8122), the remaining activity at 1.25 µM was determined as 100%.

For `CCCCNc1c(C(=O)OCC)c(C)nc2c1cnn2CC` [Tracazolate], in experiment [1] (Well no.=1472), the remaining activity at 3.75 µM turned out to be 93.7%. Further, the remaining activity at 1.25 µM in experiment [2] (Well no.=1472) was 93.2%.

With `COC1=C[C@@H]2[C@@H]3Cc4ccc(OC)c(O)c4[C@]2(CCN3C)CC1=O` [Sinomenine], the remaining activity at 3.75 µM in experiment [1] (Well no.=3757) came out at 98.8%. Besides, in experiment [2] (Well no.=3757), the remaining activity at 1.25 µM came out at 97.3%.

`O=C(O)C1=CCCNC1` [Guvacine hydrochloride]: in experiment [1] (Well no.=460), the remaining activity at 3.75 µM was 99.6%. Also, in experiment [2] (Well no.=460), the remaining activity at 1.25 µM came to 99.2%.

As to `CC(=O)c1c(O)c(C)c(O)c(Cc2c(O)c3c(c(C(=O)/C=C/c4ccccc4)c2O)OC(C)(C)C=C3)c1O` [Rottlerin], the remaining activity at 3.75 µM in experiment [1] (Well no.=1206) was determined as 102%. For the same compound, in experiment [2] (Well no.=1206), the remaining activity at 1.25 µM worked out at 103%.

As to `C=C1C[C@@H]2[C@H](CC[C@]3(C)C(=O)CC[C@@H]23)[C@@]2(C)C=CC(=O)C=C12` [Exemestane], the remaining activity at 3.75 µM in experiment [1] (Well no.=1623) amounted to 102%. In addition, in experiment [2] (Well no.=1623), the remaining activity at 1.25 µM stood at 104%.

For `CN(C)c1ccnc2sc3c(=O)n(N4CCCCCC4)cnc3c12` [3-(1-azepanyl)-9-(dimethylamino)pyrido[3',2':4,5]thieno[3,2-d]pyrimidin-4(3H)-one], the remaining activity at 3.75 µM in experiment [1] (Well no.=5949) turned out to be 93.5%. In experiment [2] (Well no.=5949), the remaining activity at 1.25 µM was found to be 92.3%.

Consider `CN1C(=O)N[C@H](Cc2c[nH]c3c(Cl)cccc23)C1=O` [Necrostatin 2], for which the remaining activity at 3.75 µM in experiment [1] (Well no.=6916) was found to be 98.6%. For the same compound, the remaining activity at 1.25 µM in experiment [2] (Well no.=6916) came out at 99.4%.

Regarding `CC(C)=CCC[C@](C)(O)[C@H]1CC[C@]2(C)[C@@H]1[C@H](O)C[C@@H]1[C@@]3(C)CC[C@H](O[C@@H]4O[C@H](CO)[C@@H](O)[C@H](O)[C@H]4O)C(C)(C)[C@@H]3CC[C@]12C` [Ginsenoside Rh2], the remaining activity at 3.75 µM in experiment [1] (Well no.=6590) turned out to be 102%. In addition, in experiment [2] (Well no.=6590), the remaining activity at 1.25 µM came out at 98.4%.

Regarding `NC[C@H](O)c1ccc(O)c(O)c1` [Norepinephrine (bitartrate monohydrate)], the remaining activity at 3.75 µM in experiment [1] (Well no.=6517) is 98.7%. Besides, the remaining activity at 1.25 µM in experiment [2] (Well no.=6517) worked out at 101%.

For `Cn1cnc2cc3c(Nc4cccc(Br)c4)ncnc3cc21` [BPIQ-I], the remaining activity at 3.75 µM in experiment [1] (Well no.=2357) was found to be 99%. For the same compound, the remaining activity at 1.25 µM in experiment [2] (Well no.=2357) worked out at 101%.

For the compound `CC1=C(O)C(=O)C=C2C1=CC=C1[C@@]2(C)CC[C@@]2(C)[C@@H]3C[C@](C)(C(=O)O)CC[C@]3(C)CC[C@]12C` [Celastrol], in experiment [1] (Well no.=3430), the remaining activity at 3.75 µM was 94.6%. For the same compound, in experiment [2] (Well no.=3430), the remaining activity at 1.25 µM came to 95.7%.

With `Cc1cc2nc(NCCCO)n(CC(=O)c3cc(C(C)(C)C)c(O)c(C(C)(C)C)c3)c2cc1C` [CID2858522], the remaining activity at 3.75 µM in experiment [1] (Well no.=5503) was determined as 109%. Moreover, the remaining activity at 1.25 µM in experiment [2] (Well no.=5503) was 104%.

The record behind these values is article PMC8286840, “Identifying SARS-CoV-2 antiviral compounds by screening for small molecule inhibitors of Nsp3 papain-like protease” (Biochemical Journal, 2021).
